{
  "source": "paper PMC10903759",
  "about": "(Journal of Genetic Engineering & Biotechnology, 2024)",
  "tested_on": "leaf rust (Puccinia triticina, CCDS-96-14-1 isolate) urediniospores",
  "format": "cell-based",
  "note": "Where no end group is shown, it is not given here.",
  "data": [
    {"sequence": "KEICCKELTKPVKCSSDPLCQKLCMEKEKYEDGHCFTILSKCLCMKRCNAKTLATELLA (disulfide (positions not given here)) [CaThi]", "values": [
      {"measurement": "germination rate of urediniospores", "value": "22.73 % ± 7.39"}
    ]}
  ]
}
